Assay results published in patent US20120003270A1, “6-SUBSTITUTED ISOFLAVONOID COMPOUNDS AND USES THEREOF” (priority 2008, published 2012).

What was measured:
eNOS = eNOS mRNA expression in HCAECs (real-time PCR); format: cell-based, human; conditions: 10 μM, 24 hr; for Average increase in the expression of eNOS: average of experiments
Procedure: HCAECs were grown as described above. Because cell viability was less than 100% at 30 and 100 μM, eNOS experiments were conducted at one concentration (10 μM). After incubation, total RNA was extracted using TRI reagent (Sigma, St Louis, Mo., USA), following the manufacturer's protocol. RNA was quantitated and normalized to 100 ng/μl using the SYBR Green II assay (Molecular Probes, Eugene, Oreg., USA) before being reverse transcribed using iScript (Bio-Rad, Hercules, Calif., USA). eNOS (sense 5′-CCATCTACAGCTTTCCGGCGC-3′ and antisense 5′-CTCTGGGGTGGCCTTCAGCA-3′) and 18S (sense 5′-CGGCTACCACATCCAAGGAA-3′ and antisense 5′-GCT GGA ATT ACC GCG GCT-3′) mRNA levels were determined by real-time PCR using iQ SYBR Green Supermix (Bio-Rad) in an iCycler iQ RealTime thermocyler detection system (Bio-Rad Laboratories). The cycling parameters were 95° C. for 30 seconds, 62° C. for 30 seconds, and 72° C. for 30 seconds for 40 cycles, and real-time data was collected at each cycle. There were six replicates.

TXA2 = TXA2 synthesis in RAW 264.7 (ELISA); format: cell-based, mouse; conditions: LPS 50 ng/ml, 16 hrs
Procedure: The mouse macrophage cell line RAW 264.7 was cultured in DMEM supplemented with foetal calf serum (FCS), 2 mM glutamine and 50 U/ml penicillin/streptomycin. Cells were treated with either test compounds (in 0.025% DMSO) or vehicle alone, and added one hour before 50 ng/ml LPS. After incubation for 16 hrs, culture media was collected for PGE2 or TXB2 measurement by ELISA (Cayman Chemical), and TNFα measurement using an ELISA (Becton Dickinson).

[1] = Pharmacokinetics after a single oral dose in mice; format: in vivo, mouse; conditions: urine, oral 25 mg/kg; for AUC: mouse
NFκB = NFκB promoter activity in transfected THP-1 cells (beta-lactamase reporter); format: cell-based, human; conditions: for Inflammatory index: TNFα 7.5 ng/ml, 5 h
Procedure: The assay utilizes a genetically modified THP-1 cell line and GeneBLAzer® beta-lactamase technology (Invitrogen Corp). The human THP-1 monocyte/macrophages contain a stably-transfected beta-lactamase reporter gene under control of the NFkB response element. They respond to stimulation with TNFα, which leads to activation of the NFkB signaling pathway. Co-incubation of cells with TNFα and test material allows quantitative determination of the ability of test material to inhibit TNFα-stimulated beta-lactamase production. An inflammatory index was calculated as the ratio of beta-lactamase product to beta-lactamase substrate.
In brief, genetically modified THP-1 cells were seeded into wells of a 96-well plate (50×10^3 cells/well) in the presence of RPMI 1640 medium (70 μl). TNFα was added to each well (10 μl) to give a final concentration of 7.5 ng/ml. Dialyzed bovine serum was added (10 μl). Test compounds were dissolved in DMSO (10 μL) (5 wells). Each plate contained a no-cell control (4 wells), a no-serum control (4 wells) and two serum controls. Plates were incubated for 5 h at 37° C. to allow for NFkB-stimulated beta-lactamase production. LiveBLAzer™ FRET B/G Substrate (CCF4-AM) substrate was then added to the assay. CCF4-AM is a Förster resonance energy transfer (FRET) based substrate for beta-lactamase developed by Invitrogen Corp. Once CCFA-AM enters a cell, it is converted to negatively charged CCF4 by endogenous esterases. Excitation of this substrate at 409 nm leads to efficient FRET between the coumarin and fluorescein moieties, resulting in a green fluorescence detectable at 530 nm. The presence of beta-lactamase leads to cleavage of CCF4 and results in a loss of FRET, resulting in a robust blue fluorescent signal detectable at 460 nm. Thus, activity of beta-lactamase (a marker of NFkB-promoter activity) is measured as a product to substrate ratio (blue/green fluorescence ratio: 460 nm/530 nm).

HUVECs = assay: Microscopic appearance of HUVECs; format: cell-based, human
Procedure: An effect on cell growth was observed microscopically at 100 μM but not at the lower doses. Normal HUVECs were predominantly epithelioid but included some spindle shaped cells. Cells were mainly healthy and viable, as indicated by their translucent appearance and adherence to the culture dish. Floating cells were presumed non-viable.

Row | SMILES | Average increase in the expression of eNOS (eNOS) | Increase in expression of eNOS mRNA relative to control cells (eNOS; EXPT 1) | Increase in expression of eNOS mRNA relative to control cells (eNOS; EXPT 2) | Increase in expression of eNOS mRNA relative to control cells (eNOS; EXPT 3) | TXB2 (TXA2; 1 μM) | TXB2 (TXA2; 10 μM) | AUC [1] | [max]free (μM, mean ± SD) [1] | Inflammatory index (NFκB; 10 μM, vehicle 8.92 ± 0.22) | Inflammatory index (NFκB; 30 μM, vehicle 11.56 ± 0.49) | Inflammatory index (NFκB; 100 μM, vehicle 9.48 ± 0.14) | Effect on promoter activity of NFκB (in words) (NFκB; THP-1 cells, TNFα-stimulated) | Microscopic appearance of treated cells (HUVECs)
1 | CN(C)Cc1cc2c(cc1O)OCC(c1ccc(O)cc1)=C2 [Compound (1)] | 45% | 52 ± 25% (0.0001) | 53 ± 49 (0.009) | 30 ± 30 (0.014) | 1333.17 ± 121.78 pg/mL | 1149.14 ± 480.27 pg/mL | 9.3 µM·h | 5.6 ± 6.7 µM | 9.12 ± 0.26 | 10.05 ± 0.36 | 2.75 ± 0.11 | significantly reduced the promoter activity of NFκB at 10 μM and 100 μM | appeared healthy
2 | O=C(O)C1CCCN1Cc1cc2c(cc1O)OCC(c1ccc(O)cc1)=C2 (stereo not drawn) [Compound (3)] | 325% | 372 ± 138% (0.00001) | 277 ± 212 (0.002) | – | 374.8 ± 132.29 pg/mL | 287.04 ± 75.58 pg/mL | 34 µM·h | 3.9 ± 2.4 µM | 8.88 ± 0.05 | 11.45 ± 0.86 | 8.59 ± 0.24 | – | appeared healthy
